Drawing on patent publication US4201774A, “Novel aminoglycoside derivatives” (Shionogi & Co., Ltd., priority 1977, dated 1980), this text covers MIC for five compounds.

Experiment [1] has as its system Staphylococus epidermidis TB-302. Description: MIC, Staphylococus epidermidis TB-302. The experiment is classed as cell-based. Conditions: read-out: minimum inhibitory concentration (MIC).
For experiment [2], the system named is Seratia marcescens MA-81. Description: MIC, Seratia marcescens MA-81*. Conditions: Seratia marcescens MA-81, tobramycin resistant strain; read-out: minimum inhibitory concentration (MIC). The experiment is classed as cell-based.
Experiment [3] deals with Proteus inconstans In-43. Briefly: MIC, Proteus inconstans In-43*. Conditions: Providencia alcalifaciens, IN43; Proteus inconstans In-43, tobramycin resistant strain; read-out: minimum inhibitory concentration (MIC). The experiment is classed as cell-based.
Experiment [4] relates to Escherichia coli EC-147. Description: MIC, Escherichia coli EC-147*. Conditions: EC147, read-out: minimum inhibitory concentration (MIC).
The test system of experiment [5] is Escherichia coli EC-148. Description: MIC, Escherichia coli EC-148*. Conditions: EC148, read-out: minimum inhibitory concentration (MIC).
In experiment [6] the test system is Staphylococcus aureus S-25. Briefly: MIC, Staphylococcus aureus S-25*. Conditions: S25, read-out: minimum inhibitory concentration (MIC).
Experiment [7] concerns Citrobactor freundii Ct-52. Briefly: MIC, Citrobactor freundii Ct-52*. Conditions: read-out: minimum inhibitory concentration (MIC).
Experiment [8] deals with Enterobacter cloacae Cl-126. Description: MIC, Enterobacter cloacae Cl-126*. Conditions: CL126, read-out: minimum inhibitory concentration (MIC).
Experiment [9] concerns Pseudomonas aeruginosa PP-6. Description: MIC, Pseudomonas aeruginosa PP-6*. Conditions: PP6, read-out: minimum inhibitory concentration (MIC).
In experiment [10] the test system is Klebsiella pneumoniae Kl-187. Description: MIC, Klebsiella pneumoniae Kl-187*. Conditions: KL187, read-out: minimum inhibitory concentration (MIC).
In experiment [11] the test system is Escherichia coli W-677/JR 214. Description: MIC, Escherichia coli W-677/JR 214*. Conditions: W677/JR214, read-out: minimum inhibitory concentration (MIC).
For experiment [12], the system named is Escherichia coli W-677/JR 225. Description: MIC, Escherichia coli W-677/JR 225*. Conditions: W677/JR225, read-out: minimum inhibitory concentration (MIC).
The test system of experiment [13] is Escherichia coli W-677/JR-762. Description: MIC, Escherichia coli W-677/JR-762*. Conditions: W677/JR762, read-out: minimum inhibitory concentration (MIC).

Converted amounts (≈) assume the structure as drawn.

Turning to `NC[C@H]1O[C@H](O[C@H]2[C@H](O)[C@@H](O[C@H]3O[C@H](CO)[C@@H](O)[C@H](N)[C@H]3O)[C@H](NCC3(O)CNC3)C[C@@H]2N)[C@H](N)C[C@@H]1O` [Test compound (1), 1-N-[(3-hydroxyazetidin-3-yl)methyl]tobramycin], the MIC in experiment [1] was determined as 3.13 µg/mL (≈ 5.66 µM); in experiment [2], 12.5 µg/mL (≈ 22.6 µM); in [3], 6.25 µg/mL (≈ 11.3 µM); in experiment [4], 3.13 µg/mL (≈ 5.66 µM); in experiment [5] it was 3.13 µg/mL (≈ 5.66 µM); in experiment [6], 50 µg/mL (≈ 90.5 µM). Further, the MIC in experiment [7] was 0.78 µg/mL (≈ 1.41 µM); in experiment [8], 0.78 µg/mL (≈ 1.41 µM); in experiment [9] it was 0.78 µg/mL (≈ 1.41 µM); in experiment [10], 0.78 µg/mL (≈ 1.41 µM); in experiment [11], 1.56 µg/mL (≈ 2.82 µM); in experiment [12] it was 1.56 µg/mL (≈ 2.82 µM). In addition, in experiment [13], the MIC was found to be 3.13 µg/mL (≈ 5.66 µM).

As for `NC[C@H]1O[C@H](O[C@H]2[C@H](O)[C@@H](O[C@H]3O[C@H](CO)[C@@H](O)[C@H](N)[C@H]3O)[C@H](NCC3(O)CCNC3)C[C@@H]2N)[C@H](N)C[C@@H]1O` (some centres unmarked) [Test compound (2), 1-N-[(3-hydroxypyrrolidin-3-yl)methyl]tobramycin], the MIC came to 1.56 µg/mL (≈ 2.75 µM) in experiment [1]; 12.5 µg/mL (≈ 22.1 µM) in experiment [2]; 12.5 µg/mL (≈ 22.1 µM) in [3]; 3.13 µg/mL (≈ 5.52 µM) in experiment [4]; 3.13 µg/mL (≈ 5.52 µM) in experiment [5]; 25 µg/mL (≈ 44.1 µM) in [6]. In addition, the MIC was determined as 0.78 µg/mL (≈ 1.38 µM) in experiment [7]; 0.78 µg/mL (≈ 1.38 µM) in experiment [8]; 0.78 µg/mL (≈ 1.38 µM) in experiment [9]; 0.39 µg/mL (≈ 0.688 µM) in [10]; 1.56 µg/mL (≈ 2.75 µM) in experiment [11]; 0.78 µg/mL (≈ 1.38 µM) in [12]. Moreover, the MIC in experiment [13] turned out to be 3.13 µg/mL (≈ 5.52 µM).

`NC[C@H]1O[C@H](O[C@H]2[C@H](O)[C@@H](O[C@H]3O[C@H](CO)[C@@H](O)[C@H](N)[C@H]3O)[C@H](NCC3(O)CNC3)C[C@@H]2N)[C@H](O)[C@@H](O)[C@@H]1O` [Test compound (3), 1-N-[(3-hydroxyazetidin-3-yl)methyl]kanamycin A]: the MIC in experiment [1] came out at 3.13 µg/mL (≈ 5.49 µM); in experiment [2], 12.5 µg/mL (≈ 21.9 µM); in experiment [3], 3.13 µg/mL (≈ 5.49 µM); in [4], 6.25 µg/mL (≈ 11 µM); in experiment [5], 12.5 µg/mL (≈ 21.9 µM); in experiment [6], 25 µg/mL (≈ 43.9 µM). In addition, the MIC stood at 3.13 µg/mL (≈ 5.49 µM) in [7]; 1.56 µg/mL (≈ 2.74 µM) in experiment [8]; 3.13 µg/mL (≈ 5.49 µM) in experiment [9]; 1.56 µg/mL (≈ 2.74 µM) in experiment [10]; 6.25 µg/mL (≈ 11 µM) in experiment [11]; 3.13 µg/mL (≈ 5.49 µM) in experiment [12]. Moreover, the MIC in experiment [13] came to 12.5 µg/mL (≈ 21.9 µM).

As for `NC[C@H]1O[C@H](O[C@H]2[C@H](O)[C@@H](O[C@H]3O[C@H](CO)[C@@H](O)[C@H](N)[C@H]3O)[C@H](NCC3(O)CCNC3)C[C@@H]2N)[C@H](O)[C@@H](O)[C@@H]1O` (some centres unmarked) [Test compound (4), 1-N-[(3-hydroxypyrrolidin-3-yl)methyl]kanamycin A], the MIC is 1.56 µg/mL (≈ 2.67 µM) in [1]; 12.5 µg/mL (≈ 21.4 µM) in experiment [2]; 3.13 µg/mL (≈ 5.36 µM) in [3]; 6.25 µg/mL (≈ 10.7 µM) in [4]; 6.25 µg/mL (≈ 10.7 µM) in [5]; 12.5 µg/mL (≈ 21.4 µM) in experiment [6]. Moreover, the MIC in experiment [7] was determined as 1.56 µg/mL (≈ 2.67 µM); in [8], 1.56 µg/mL (≈ 2.67 µM); in experiment [9], 3.13 µg/mL (≈ 5.36 µM); in experiment [10] it was 1.56 µg/mL (≈ 2.67 µM); in experiment [11], 3.13 µg/mL (≈ 5.36 µM); in [12] it was 3.13 µg/mL (≈ 5.36 µM). The MIC in [13] came to 12.5 µg/mL (≈ 21.4 µM).

For `NC[C@H]1O[C@H](O[C@H]2[C@H](O)[C@@H](O[C@H]3O[C@H](CO)[C@@H](O)[C@H](N)[C@H]3O)[C@H](N)C[C@@H]2N)[C@H](N)C[C@@H]1O` [Test compound (5), tobramycin, reference compound], the MIC is 3.13 µg/mL (≈ 6.69 µM) in experiment [1]; > 100 µg/mL in experiment [2]; 6.25 µg/mL (≈ 13.4 µM) in experiment [3]; 50 µg/mL (≈ 107 µM) in [4]; 100 µg/mL (≈ 214 µM) in experiment [5]; 100 µg/mL (≈ 214 µM) in experiment [6]. Moreover, the MIC worked out at 25 µg/mL (≈ 53.5 µM) in experiment [7]; 25 µg/mL (≈ 53.5 µM) in experiment [8]; 50 µg/mL (≈ 107 µM) in [9]; 25 µg/mL (≈ 53.5 µM) in experiment [10]; 100 µg/mL (≈ 214 µM) in experiment [11]; 50 µg/mL (≈ 107 µM) in [12]. For the same compound, the MIC in experiment [13] is > 100 µg/mL.
